From PubChem BioAssay (NCI)
Values joined by “and” are separate entries in the source; they are usually repeats but may differ in a detail not shown here. Identical values can stand only once.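 Following 48 hours of exposure in 96-well plates, responses at five concentrations were used to interpolate endpoints linearly. GI50: concentration for 50% inhibition of growth. TGI: concentration producing complete growth inhibition.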

What was measured:
Experiment in all cases: inhibition of tumour cell growth, NCI panel, 48 h
ACHN renal = tested on: ACHN renal
COLO 205 colon = tested on: COLO 205 colon
MDA-MB-435 = tested on: MDA-MB-435
PC-3 prostate = tested on: PC-3 prostate
RXF 393 renal = tested on: RXF 393 renal
SN12C renal = tested on: SN12C renal
SW-620 colon = tested on: SW-620 colon
BT-549 breast = tested on: BT-549 breast
HT29 colon = tested on: HT29 colon
LOX IMVI melanoma = tested on: LOX IMVI melanoma

Row | SMILES | TGI (ACHN renal) [µM] | GI50 (COLO 205 colon) [µM] | TGI (COLO 205 colon) | TGI (MDA-MB-435) [µM] | TGI (PC-3 prostate) [µM] | TGI (RXF 393 renal) [µM] | GI50 (SN12C renal) [µM] | TGI (SN12C renal) [µM] | TGI (SW-620 colon) [µM] | TGI (BT-549 breast) [µM] | TGI (HT29 colon) [µM] | TGI (LOX IMVI melanoma) [µM] | GI50 (HT29 colon) [µM] | GI50 (MDA-MB-435) [µM] | GI50 (PC-3 prostate) [µM] | GI50 (RXF 393 renal) [µM]
1 | CCOC(=O)Oc1cc2c(c(OC)c1OC)-c1ccc(SC)c(=O)cc1C(NC(=O)C(F)(F)F)CC2 (configuration not stated) | 52.8 | 0.0447 | 0.523 µM and 1.03 µM | < 0.001 | > 100 | < 0.001 | 0.0135 | > 100 | > 100 | – | – | – | – | – | – | –
2 | CCCCc1c(C(=O)OC(C)(C)C)cc(C#Cc2cc(C(=O)OC(C)(C)C)c(CCCC)c(C(=O)OC(C)(C)C)c2)cc1C(=O)OC(C)(C)C | > 100 | – | > 100 µM | > 100 | > 100 | – | – | > 100 | – | > 100 | – | – | – | – | – | –
3 | C=C1C(=O)OC2(C)C3CCC(C3)C12 (configuration not stated) | > 100 | – | 48.4 µM | – | – | – | – | > 100 | > 100 | – | > 100 | > 100 | – | – | – | –
4 | NC(=O)c1nnc2cc(F)ccc2c1N | > 100 | – | > 100 µM | > 100 | > 100 | – | – | > 100 | > 100 | > 100 | > 100 | > 100 | – | – | – | –
5 | Cc1nc2c(n1C(C)(C)C)C(=O)c1ccccc1C2=O | > 100 | – | > 100 µM | – | – | > 100 | – | > 100 | > 100 | – | > 100 | > 100 | – | – | – | –
6 | CC1(C)N=C(C(N)=O)c2ncn(CCO)c2N1 | > 100 | – | > 100 µM | > 100 | > 100 | > 100 | – | > 100 | > 100 | – | > 100 | > 100 | – | – | – | –
7 | CC(C)SC(C)(NC(=O)C1C(C)(C)CCC1(C)C)C(=O)O (configuration not stated) | > 100 | – | > 100 µM | > 100 | > 100 | – | – | > 100 | > 100 | – | – | > 100 | – | – | – | –
8 | COc1cc2c(c(OC)c1OC)-c1ccc(SC)c(=O)cc1[C@@H](OC(C)=O)CC2 | > 100 | – | > 100 µM | – | > 100 | > 100 | – | > 100 | > 100 | > 100 | – | > 100 | – | – | – | –
9 | CN1C(=S)C(c2ccccc2)Sc2ccccc21 (configuration not stated) | > 100 | – | > 100 µM | > 100 | > 100 | > 100 | – | > 100 | – | > 100 | – | > 100 | – | – | – | –
10 | CCOC(=O)/C(=C\c1ccc(N(C)C)cc1)S(=O)(=O)C(F)(F)C(F)(F)C(F)(F)C(F)(F)F | > 100 | – | > 100 µM | > 100 | > 100 | – | – | > 100 | > 100 | > 100 | > 100 | > 100 | – | – | – | –
11 | O=C(Nc1cccc(C(F)(F)F)c1)O/N=C(/Cl)CCl | > 100 | – | > 100 µM | – | > 100 | – | – | > 100 | > 100 | – | > 100 | 69.9 | – | – | – | –
12 | CCOC(=O)Nc1c(C#N)[n+]([O-])c2cc(Cl)c(Cl)cc2[n+]1[O-] | – | – | 30.3 µM | 36.6 | 31.8 | 33 | – | 32 | 56.5 | 36.3 | 37.3 | 27.9 | – | – | – | –
13 | C=CCOCn1cnc2c(N)ncnc21 | > 100 | – | > 100 µM | > 100 | > 100 | – | – | > 100 | > 100 | – | > 100 | > 100 | – | – | – | –
14 | O=[N+]([O-])/C(C(Cl)=C(Cl)Cl)=C1\NCCO1 | > 100 | – | > 100 µM | > 100 | > 100 | > 100 | – | > 100 | – | – | > 100 | > 100 | – | – | – | –
15 | COc1ccccc1-c1cc(=O)c2ccccc2[nH]1 | > 100 | – | > 100 µM | – | – | > 100 | – | > 100 | > 100 | – | – | > 100 | – | – | – | –
16 | O=C(N=C1SCCN1C(=O)C(C(F)(F)F)C(F)(F)F)C(C(F)(F)F)C(F)(F)F | > 100 | – | > 100 µM | > 100 | > 100 | > 100 | – | – | > 100 | – | > 100 | > 100 | – | – | – | –
17 | COc1ccc(N2C(=Nc3ccccc3)SC(=N/S(=O)(=O)c3ccccc3)/C2=N\S(=O)(=O)c2ccccc2)cc1 | 61.1 | – | 41 µM | – | 42.3 | 28.2 | – | 39.8 | > 100 | 54.2 | 48 | – | – | – | – | –
18 | Cc1ccnc2[nH]c(-c3cccc(Cl)c3)cc(=O)c12 | > 100 | – | – | – | > 100 | > 100 | – | > 100 | > 100 | – | > 100 | > 100 | – | – | – | –
19 | CCCCCC(=O)N[C@@H](c1ccccc1)C(O)C(=O)OC1C[C@@]2(O)C(OC(=O)c3ccccc3)C3[C@](C)(C(=O)[C@H](O)C(=C1C)C2(C)C)C(OC1OCC(O)C(O)C1O)C[C@H]1OC[C@@]31OC(C)=O (some centres not stated) | > 100 | – | 8.15 µM | 1.78 | > 86.4 | > 41 | – | > 100 | > 100 | > 100 | > 36.8 | – | – | – | – | –
20 | CCOc1ccc(/C=C(\Cl)c2ccc(OC)c(OC)c2)cc1 | > 100 | – | > 100 µM | – | – | 65.5 | – | > 100 | > 100 | – | 40.9 | – | – | – | – | –
21 | CC(=O)[C@@H]1CCC=C2CC[C@]3(C)[C@@H](CC[C@@H]4[C@@]5(C)CCCNC(C)(C)[C@@H]5CC[C@]43C)[C@H]21 | – | 1.38 | 2.79 µM | 3.49 | 3.06 | 3.32 | 1.79 | 3.31 | – | – | 2.58 | – | 1.2 | 1.87 | 1.65 | 1.74
22 | Cc1ccc(N=Nc2c(O)ccc3cc(S(=O)(=O)O)ccc23)c(C)c1 | > 100 | – | > 100 µM | > 100 | > 100 | > 100 | – | > 100 | > 100 | > 100 | > 100 | – | – | – | – | –
23 | CCCCCC(=O)c1ccc2[nH]c3c(C)cc([N+](=O)[O-])c(C)c3c2c1 | > 100 | – | > 100 µM | – | – | – | – | > 100 | > 100 | – | > 100 | > 100 | – | – | – | –
24 | Cc1c2c(cc3c1[nH]c1ccccc13)C=NCC2 | – | – | 22.4 µM | – | – | 16.4 | – | 62.6 | 27.6 | – | 31.7 | 36.6 | – | – | – | –
